Source: ChEMBL document CHEMBL4828725 (Eur J Med Chem, 2021)

What was measured:
Prunus dulcis = experiment: Inhibition of almond beta-glucosidase using p-nitrophenyl glycoside as substrate assessed as release of p-nitrophenol at 1000 uM measured by spectrometric assay relative to control
[1] = Inhibition of porcine kidney alpha-trehalase using p-nitrophenyl glycoside as substrate assessed as release of p-nitrophenol measured by spectrometric assay; design: species or system Sus scrofa; details: read-out: IC50
[2] = Inhibition of almond beta-glucosidase using p-nitrophenyl glycoside as substrate assessed as release of p-nitrophenol measured by spectrometric assay; design: species or system Prunus dulcis
Helix pomatia = experiment: Inhibition of snail beta-mannosidase using p-nitrophenyl glycoside as substrate assessed as release of p-nitrophenol at 1000 uM measured by spectrometric assay relative to control
[3] = Inhibition of bovine liver beta-glucosidase using p-nitrophenyl glycoside as substrate assessed as release of p-nitrophenol measured by spectrometric assay; design: species or system Bos taurus
[4] = Inhibition of bovine liver beta-galactosidase using p-nitrophenyl glycoside as substrate assessed as release of p-nitrophenol measured by spectrometric assay; assay type: tissue-based, Bos taurus
Penicillium decumbens = experiment: Inhibition of Penicillium decumbens alpha-L-rhamnosidase using p-nitrophenyl glycoside as substrate assessed as release of p-nitrophenol at 1000 uM measured by spectrometric assay relative to control
[5] = target: T1, Alpha-mannosidase (Canavalia ensiformis) (UniProt C0HJB3); experiment: Inhibition of jack bean alpha-mannosidase using p-nitrophenyl glycoside as substrate assessed as release of p-nitrophenol at 1000 uM measured by spectrometric assay relative to control
T1 sequence (whole entry): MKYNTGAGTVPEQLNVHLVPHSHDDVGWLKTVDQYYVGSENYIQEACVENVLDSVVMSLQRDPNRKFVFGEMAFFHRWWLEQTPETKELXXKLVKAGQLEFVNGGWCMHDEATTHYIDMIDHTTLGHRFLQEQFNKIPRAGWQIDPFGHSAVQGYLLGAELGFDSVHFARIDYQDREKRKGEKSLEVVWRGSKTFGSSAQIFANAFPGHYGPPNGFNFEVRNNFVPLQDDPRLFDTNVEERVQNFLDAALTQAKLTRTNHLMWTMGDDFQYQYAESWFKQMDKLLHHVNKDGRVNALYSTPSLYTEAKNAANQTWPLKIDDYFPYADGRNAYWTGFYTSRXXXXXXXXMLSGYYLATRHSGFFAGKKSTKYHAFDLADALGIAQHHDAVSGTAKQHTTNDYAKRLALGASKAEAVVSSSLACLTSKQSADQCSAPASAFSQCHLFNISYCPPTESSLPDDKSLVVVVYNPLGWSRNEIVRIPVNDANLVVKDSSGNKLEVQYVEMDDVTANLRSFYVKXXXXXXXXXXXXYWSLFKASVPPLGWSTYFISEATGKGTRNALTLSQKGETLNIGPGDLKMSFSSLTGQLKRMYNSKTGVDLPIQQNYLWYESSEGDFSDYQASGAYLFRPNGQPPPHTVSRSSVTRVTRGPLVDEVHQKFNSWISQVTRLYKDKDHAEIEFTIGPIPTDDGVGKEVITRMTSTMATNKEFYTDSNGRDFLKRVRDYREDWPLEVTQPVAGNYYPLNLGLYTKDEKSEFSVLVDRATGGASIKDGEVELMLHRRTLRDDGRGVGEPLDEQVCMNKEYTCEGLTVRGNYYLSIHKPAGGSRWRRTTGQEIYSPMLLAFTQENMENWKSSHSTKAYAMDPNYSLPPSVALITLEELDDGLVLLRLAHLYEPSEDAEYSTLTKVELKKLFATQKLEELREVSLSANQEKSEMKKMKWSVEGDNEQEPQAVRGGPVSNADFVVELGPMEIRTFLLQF

[6] = Inhibition of snail beta-mannosidase using p-nitrophenyl glycoside as substrate assessed as release of p-nitrophenol measured by spectrometric assay; design: species or system Helix pomatia
Bos taurus [7] = species: Bos taurus; experiment: Inhibition of bovine liver beta-glucosidase using p-nitrophenyl glycoside as substrate assessed as release of p-nitrophenol at 1000 uM measured by spectrometric assay relative to control; assay type: tissue-based
[8] = target: T2, Sucrase-isomaltase, intestinal (Rattus norvegicus, UniProt P23739); experiment: Inhibition of rat intestinal isomaltase using p-nitrophenyl glycoside as substrate assessed as release of p-nitrophenol measured by spectrometric assay; details: read-out: IC50
T2 sequence (P23739 1-1013 limits assumed): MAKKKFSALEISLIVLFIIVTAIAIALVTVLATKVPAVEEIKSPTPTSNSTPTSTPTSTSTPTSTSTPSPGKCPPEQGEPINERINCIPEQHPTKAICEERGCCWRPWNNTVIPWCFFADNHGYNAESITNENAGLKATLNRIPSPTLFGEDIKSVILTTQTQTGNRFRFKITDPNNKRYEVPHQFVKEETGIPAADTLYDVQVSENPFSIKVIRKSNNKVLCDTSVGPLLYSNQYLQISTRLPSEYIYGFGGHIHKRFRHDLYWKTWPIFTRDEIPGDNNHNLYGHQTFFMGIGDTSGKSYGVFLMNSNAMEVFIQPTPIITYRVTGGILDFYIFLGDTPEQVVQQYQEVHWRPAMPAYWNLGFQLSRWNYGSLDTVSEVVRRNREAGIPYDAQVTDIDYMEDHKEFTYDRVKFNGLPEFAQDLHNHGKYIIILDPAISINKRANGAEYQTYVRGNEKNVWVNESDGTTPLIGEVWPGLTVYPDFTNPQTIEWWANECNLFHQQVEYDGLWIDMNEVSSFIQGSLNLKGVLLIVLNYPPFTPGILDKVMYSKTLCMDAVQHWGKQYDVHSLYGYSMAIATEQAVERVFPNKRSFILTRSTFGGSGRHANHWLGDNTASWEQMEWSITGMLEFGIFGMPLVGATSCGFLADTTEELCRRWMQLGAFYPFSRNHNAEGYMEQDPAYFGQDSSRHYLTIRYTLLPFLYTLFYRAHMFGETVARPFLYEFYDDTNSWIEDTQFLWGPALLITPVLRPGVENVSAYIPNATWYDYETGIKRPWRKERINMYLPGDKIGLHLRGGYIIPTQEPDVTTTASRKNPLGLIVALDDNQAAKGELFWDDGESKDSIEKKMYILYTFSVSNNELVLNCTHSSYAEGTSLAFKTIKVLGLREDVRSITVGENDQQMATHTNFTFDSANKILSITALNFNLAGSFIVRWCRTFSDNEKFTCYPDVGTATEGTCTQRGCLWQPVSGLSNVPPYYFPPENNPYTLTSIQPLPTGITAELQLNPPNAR
T2 sequence (P23739 1014-1841 limits assumed): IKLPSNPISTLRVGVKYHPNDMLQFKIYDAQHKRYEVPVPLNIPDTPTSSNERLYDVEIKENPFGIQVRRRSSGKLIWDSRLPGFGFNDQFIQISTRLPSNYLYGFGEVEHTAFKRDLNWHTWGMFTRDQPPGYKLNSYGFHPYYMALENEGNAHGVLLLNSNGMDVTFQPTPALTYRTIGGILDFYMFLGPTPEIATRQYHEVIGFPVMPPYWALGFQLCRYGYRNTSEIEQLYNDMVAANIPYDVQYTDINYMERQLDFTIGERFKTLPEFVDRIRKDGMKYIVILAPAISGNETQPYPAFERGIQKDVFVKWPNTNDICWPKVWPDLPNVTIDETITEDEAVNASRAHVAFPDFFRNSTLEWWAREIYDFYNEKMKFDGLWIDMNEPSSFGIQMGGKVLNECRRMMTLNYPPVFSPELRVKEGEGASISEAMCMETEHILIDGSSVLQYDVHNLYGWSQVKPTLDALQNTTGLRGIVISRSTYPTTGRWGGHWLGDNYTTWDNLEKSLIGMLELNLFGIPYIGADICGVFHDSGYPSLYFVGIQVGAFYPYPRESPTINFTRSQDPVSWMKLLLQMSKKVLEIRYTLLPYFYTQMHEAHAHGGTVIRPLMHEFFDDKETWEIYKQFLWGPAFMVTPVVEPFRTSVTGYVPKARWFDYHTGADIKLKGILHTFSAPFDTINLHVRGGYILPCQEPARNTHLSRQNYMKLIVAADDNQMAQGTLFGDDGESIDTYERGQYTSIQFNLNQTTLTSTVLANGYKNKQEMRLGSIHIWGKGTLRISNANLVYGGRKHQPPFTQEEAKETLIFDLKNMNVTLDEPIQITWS

Beta-glucuronidase = Beta-glucuronidase (Escherichia coli (strain K12), UniProt P05804); experiment: Inhibition of Escherichia coli beta-glucuronidase using p-nitrophenyl glycoside as substrate assessed as release of p-nitrophenol measured by spectrometric assay
Beta-glucuronidase, sequence (P05804 whole entry): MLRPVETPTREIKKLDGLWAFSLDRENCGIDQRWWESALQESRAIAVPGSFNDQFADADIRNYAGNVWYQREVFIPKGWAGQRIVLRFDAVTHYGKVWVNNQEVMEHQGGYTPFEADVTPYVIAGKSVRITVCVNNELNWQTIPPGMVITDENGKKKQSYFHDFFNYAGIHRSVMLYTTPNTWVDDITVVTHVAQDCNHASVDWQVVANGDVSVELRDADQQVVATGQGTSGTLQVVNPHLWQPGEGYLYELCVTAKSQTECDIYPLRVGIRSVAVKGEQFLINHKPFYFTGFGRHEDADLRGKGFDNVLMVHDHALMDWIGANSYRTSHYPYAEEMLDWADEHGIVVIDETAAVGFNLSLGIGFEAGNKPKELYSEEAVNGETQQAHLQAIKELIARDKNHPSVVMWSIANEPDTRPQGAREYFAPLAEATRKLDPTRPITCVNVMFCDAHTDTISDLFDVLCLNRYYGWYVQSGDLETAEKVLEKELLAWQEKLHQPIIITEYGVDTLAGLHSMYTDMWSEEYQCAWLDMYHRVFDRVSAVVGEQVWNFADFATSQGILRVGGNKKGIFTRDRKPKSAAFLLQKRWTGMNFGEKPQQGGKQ

[9] = Inhibition of Penicillium decumbens alpha-L-rhamnosidase using p-nitrophenyl glycoside as substrate assessed as release of p-nitrophenol measured by spectrometric assay
[10] = Inhibition of Aspergillus niger amyloglucosidase using p-nitrophenyl glycoside as substrate assessed as release of p-nitrophenol measured by spectrometric assay
Aspergillus niger = experiment: Inhibition of Aspergillus niger amyloglucosidase using p-nitrophenyl glycoside as substrate assessed as release of p-nitrophenol at 1000 uM measured by spectrometric assay relative to control
[11] = target: T2, Sucrase-isomaltase, intestinal; experiment: Inhibition of rat intestinal sucrase using p-nitrophenyl glycoside as substrate assessed as release of p-nitrophenol measured by spectrometric assay; details: read-out: IC50
[12] = target: T3, Tissue alpha-L-fucosidase (Bos taurus, UniProt Q2KIM0); experiment: Inhibition of bovine kidney alpha-L-fucosidase using p-nitrophenyl glycoside as substrate assessed as release of p-nitrophenol measured by spectrometric assay
T3 sequence (Q2KIM0 whole entry): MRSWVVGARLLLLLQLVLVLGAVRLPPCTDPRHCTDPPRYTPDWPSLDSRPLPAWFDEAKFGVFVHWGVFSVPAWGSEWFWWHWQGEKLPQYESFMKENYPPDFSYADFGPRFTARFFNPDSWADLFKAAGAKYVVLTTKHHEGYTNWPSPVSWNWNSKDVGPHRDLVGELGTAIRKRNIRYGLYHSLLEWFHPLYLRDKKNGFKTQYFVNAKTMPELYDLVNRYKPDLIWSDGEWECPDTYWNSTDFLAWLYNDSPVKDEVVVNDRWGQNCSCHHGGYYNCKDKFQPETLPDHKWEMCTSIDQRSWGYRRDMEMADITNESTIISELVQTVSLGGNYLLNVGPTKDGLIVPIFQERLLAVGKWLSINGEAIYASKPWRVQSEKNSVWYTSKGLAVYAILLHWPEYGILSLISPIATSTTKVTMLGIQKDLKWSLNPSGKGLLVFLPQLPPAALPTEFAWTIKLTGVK

Bos taurus [13] = species: Bos taurus; experiment: Inhibition of bovine liver beta-galactosidase using p-nitrophenyl glycoside as substrate assessed as release of p-nitrophenol at 1000 uM measured by spectrometric assay relative to control
[14] = target: Beta-glucuronidase (Escherichia coli (strain K12)) (UniProt P05804); experiment: Inhibition of Escherichia coli beta-glucuronidase using p-nitrophenyl glycoside as substrate assessed as release of p-nitrophenol at 1000 uM measured by spectrometric assay relative to control
Beta-glucuronidase (Escherichia coli (strain K12)), sequence (P05804 whole entry, looked up): as the sequence (P05804 whole entry) above

Alpha-galactosidase = Alpha-galactosidase (Coffea arabica, UniProt Q42656); experiment: Inhibition of coffee beans alpha-galactosidase using p-nitrophenyl glycoside as substrate assessed as release of p-nitrophenol measured by spectrometric assay
Alpha-galactosidase, sequence (Q42656 whole entry): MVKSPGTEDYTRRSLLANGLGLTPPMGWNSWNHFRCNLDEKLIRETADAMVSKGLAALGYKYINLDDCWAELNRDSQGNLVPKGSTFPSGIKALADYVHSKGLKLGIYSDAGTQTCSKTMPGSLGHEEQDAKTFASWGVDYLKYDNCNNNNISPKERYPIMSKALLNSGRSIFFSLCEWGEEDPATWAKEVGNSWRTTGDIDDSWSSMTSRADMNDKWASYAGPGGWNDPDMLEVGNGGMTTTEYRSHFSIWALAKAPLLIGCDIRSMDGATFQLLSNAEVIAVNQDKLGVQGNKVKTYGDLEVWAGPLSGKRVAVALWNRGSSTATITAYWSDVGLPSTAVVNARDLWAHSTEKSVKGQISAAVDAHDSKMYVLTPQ

[15] = target: T4, Tissue alpha-L-fucosidase (Bos taurus) (UniProt Q2KIM0); experiment: Inhibition of bovine kidney alpha-L-fucosidase using p-nitrophenyl glycoside as substrate assessed as release of p-nitrophenol at 1000 uM measured by spectrometric assay relative to control; assay type: tissue-based
T4 sequence (whole entry): T3 sequence (Q2KIM0 whole entry)

[16] = Inhibition of jack bean alpha-mannosidase using p-nitrophenyl glycoside as substrate assessed as release of p-nitrophenol measured by spectrometric assay; design: species or system Canavalia ensiformis
[17] = Inhibition of rice alpha-glucosidase using p-nitrophenyl glycoside as substrate assessed as release of p-nitrophenol measured by spectrometric assay; design: species or system Oryza sativa; details: read-out: IC50
Maltase-glucoamylase = Maltase-glucoamylase (Homo sapiens, UniProt O43451); experiment: Inhibition of human alpha-glucosidase
[18] = Inhibition of rat intestinal maltase using maltose as substrate assessed as release of D-glucose measured by spectrometric assay
[19] = target: Alpha-galactosidase (Coffea arabica) (UniProt Q42656); experiment: Inhibition of coffee beans alpha-galactosidase using p-nitrophenyl glycoside as substrate assessed as release of p-nitrophenol at 1000 uM measured by spectrometric assay relative to control
Alpha-galactosidase (Coffea arabica), sequence (Q42656 16-378 limits assumed): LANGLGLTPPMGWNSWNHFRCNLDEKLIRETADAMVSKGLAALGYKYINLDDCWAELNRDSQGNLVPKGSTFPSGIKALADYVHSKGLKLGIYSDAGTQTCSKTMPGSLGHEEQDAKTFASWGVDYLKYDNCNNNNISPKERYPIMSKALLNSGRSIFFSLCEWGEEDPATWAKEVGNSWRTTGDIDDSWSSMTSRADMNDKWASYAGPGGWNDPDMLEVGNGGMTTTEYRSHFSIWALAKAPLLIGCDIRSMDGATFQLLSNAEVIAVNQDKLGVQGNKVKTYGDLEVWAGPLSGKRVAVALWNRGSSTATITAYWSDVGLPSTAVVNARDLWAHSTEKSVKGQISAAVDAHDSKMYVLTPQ

[20] = Inhibition of beta-glucosidase (unknown origin); design: species or system Homo sapiens

Structure (SMILES)	inhibition (Prunus dulcis) [%]	IC50 [1] [nM]	IC50 [2]	inhibition (Helix pomatia) [%]	IC50 [3]	IC50 [4]	inhibition (Penicillium decumbens) [%]	inhibition [5] [%]	IC50 [6]	inhibition (Bos taurus [7]) [%]	IC50 (Beta-glucuronidase)	IC50 [9]	IC50 [12]	inhibition (Bos taurus [13]) [%]	inhibition [14] [%]	inhibition [15] [%]	IC50 [16]	IC50 [17] [nM]	IC50 [18] [nM]	other results
C[C@]1(CO)NC[C@H](O)[C@@H](O)[C@@H]1O.Cl	6.7	42000	Not Active	2	Not Active	Not Active	2.4	2.1	Not Active	9.5	Not Active	Not Active	Not Active	11.9	0	0	Not Active	15.5	53	IC50 [8]: 960 nM; IC50 [10]: Not Active; inhibition (Aspergillus niger): 8%; IC50 [11]: 200 nM; IC50 (Alpha-galactosidase; read-out: IC50): 7500 nM; IC50 (Maltase-glucoamylase): 1000 nM
OC[C@H]1NC[C@H](O)[C@@H](O)[C@@H]1O [DUVOGLUSTAT]	12.1	48000	Not Active	4.8	Not Active	Not Active	45.6	17.4	Not Active	4.6	Not Active	Not Active	Not Active	0	0.8	1	Not Active	440	120	inhibition [19]: 13.7%; IC50 ([10]; read-out: IC50): 763000 nM; IC50 (Alpha-galactosidase): Not Active; IC50 [20]: 270 nM
